From US20240180900A1, “COMPOUNDS AND METHODS FOR THE TARGETED DEGRADATION OF ANDROGEN RECEPTOR” (Arvinas Operations, Inc., priority 2022, published 2024)

Legend:
[1] = test system: VCaP tumor xenograft; settings: cited from earlier work
[2] = test system: prostate; assay: 10-day prostate involution study in rats; format: in vivo, rat; settings: enzalutamide 100 mg/kg/day orally, 10 days, intact rats
Experimental: Enzalutamide and Compound A were orally administered once daily at the indicated doses. After 10 days of treatment, the prostate tissue from each rat was isolated and weighed. Treatment groups (n=5 per group) were compared by one way ANOVA. Note: ns: not significant, *: p<0.05, **: p≤0.01.
To substantiate the on-target mechanism of Compound A, a prostate involution study was conducted in rats. […] Twenty-four hours after the last dose, the rats were euthanized, and the prostate organs were isolated and weighed.

[3] = test system: PSA; assay: intracellular PSA ELISA in VCaP cells; format: cell-based; settings: Homo sapiens, CSS + 0.1 nM R1881, 48 hours, read-out: IC50, inhibiting PSA expression
Experimental: Intracellular prostate specific antigen (PSA) levels were determined using a PSA enzyme-linked immunosorbent assay (ELISA). […] The cell proliferation was determined using the CellTiter-Glo® assay. […] The CaspaseGlo® assay was carried out to measure the level of apoptosis in cells.
To evaluate the pharmacological effect of Compound A in vitro, PSA, cell proliferation, and apoptosis assays were carried out in VCaP cells.

[4] = test system: VCaP tumor xenograft; assay: VCaP tumor xenograft study in intact (non-castrated) mice; format: in vivo, mouse; settings: enzalutamide 20 mg/kg orally QD for 21 days
Text: To mimic higher androgen levels found in an incomplete testosterone suppression environment, intact (non-castrated) mice were employed for a VCaP tumor xenograft study.

[5] = target: cereblon (Homo sapiens, UniProt Q96SW2); settings: pomalidomide 10 μM
cereblon, sequence (Q96SW2 whole entry): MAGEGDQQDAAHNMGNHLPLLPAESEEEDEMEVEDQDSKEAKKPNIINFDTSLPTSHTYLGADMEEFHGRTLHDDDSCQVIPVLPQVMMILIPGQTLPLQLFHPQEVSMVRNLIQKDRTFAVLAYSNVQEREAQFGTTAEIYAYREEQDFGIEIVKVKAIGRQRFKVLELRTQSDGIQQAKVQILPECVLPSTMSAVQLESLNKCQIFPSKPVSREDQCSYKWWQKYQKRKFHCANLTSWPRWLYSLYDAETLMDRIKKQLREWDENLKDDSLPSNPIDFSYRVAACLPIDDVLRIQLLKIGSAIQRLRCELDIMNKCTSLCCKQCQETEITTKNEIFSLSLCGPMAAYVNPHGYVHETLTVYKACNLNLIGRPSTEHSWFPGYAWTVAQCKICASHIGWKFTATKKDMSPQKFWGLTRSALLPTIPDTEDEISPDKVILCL

Structure (SMILES)	activity in the intact VCaP setting (published data) [1]	Mean (±SEM) prostate weights [2]	IC50 [3]	tumor growth inhibition (TGI) [4]	effect on Compound A mediated AR degradation [5]
CNC(=O)c1ccc(N2C(=S)N(c3ccc(C#N)c(C(F)(F)F)c3)C(=O)C2(C)C)cc1F [enzalutamide, reference compound]	very modest activity, or no activity at all	818 ± 170 mg	175 nM	27%	
Nc1cccc2c1C(=O)N(C1CCC(=O)NC1=O)C2=O (centres unmarked) [pomalidomide]					blocked Compound A mediated degradation
